Measurements taken from paper PMC11672400, “Synthesis, Spectroscopic Characterization, Structural Analysis, and Evaluation of Anti-Tumor, Antimicrobial, and Antibiofilm Activities of Halogenoaminopyrazoles Derivatives” (Antibiotics, 2024).
In brackets after ≈: the same amount, converted by molar mass. Like-named read-outs stand apart in the source and are kept apart here.

Tests used:
[1] = tested on: Escherichia coli ATCC25922; experiment: Qualitative evaluation of antimicrobial activity (inhibition zone, spot on agar); format: cell-based; design: key: (+) inhibited bacterial growth; (-) did not inhibit bacterial growth; details: 0.06 g/2 mL DMSO, 5 µL spot
Protocol: (§1) For testing the antimicrobial/antibiofilm activity, the concentration of the studied compounds was identical to 0.06 g/2 mL DMSO. 0.5 Standard McFarland suspension was used, which was inoculated onto Mueller Hinton agar plates, (Remel, Lenexa, KS, USA), 5 µL of each compound was spotted and incubated overnight at 37 °C. Antimicrobial activity was observed as zones of inhibition formed around the spot.

[2] = tested on: Staphylococcus aureus ATCC25923; experiment: as above; format: cell-based; design: key: (+) inhibited bacterial growth; (-) did not inhibit bacterial growth; details: 0.06 g/2 mL DMSO, 5 µL spot
Protocol: as §1

[3] = tested on: Enterococcus faecalis ATCC29212; experiment: as above; format: cell-based; design: key: (+) inhibited bacterial growth; (-) did not inhibit bacterial growth; details: 0.06 g/2 mL DMSO, 5 µL spot
Protocol: as §1

[4] = tested on: Pseudomonas aeruginosa ATCC27853; experiment: as above; format: cell-based; design: key: (+) inhibited bacterial growth; (-) did not inhibit bacterial growth; details: 0.06 g/2 mL DMSO, 5 µL spot
Protocol: as §1

[5] = tested on: Escherichia coli ATCC25922; experiment: Antibiofilm assay (crystal violet), MBIC; format: cell-based; details: Escherichia coli, ATCC25922, 24 h, 37 °C, read-out: Minimum biofilm inhibition concentration (MBIC), Escherichia coli ATCC25922
In short: (§2)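 Biofilms grown in nutrient broth with test substances for 24 h at 37 °C. After rinsing with sterile physiological water, attached cells were fixed 5 min with methanol, then crystal violet stained.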

[6] = tested on: Staphylococcus aureus ATCC25923; experiment: Antibiofilm assay (crystal violet), MBIC; format: cell-based; details: 24 h, 37 °C; for minimal effective concentration: Staphylococcus aureus, ATCC25923, read-out: Minimum biofilm inhibition concentration (MBIC), Staphylococcus aureus ATCC25923
In short: as §2

[7] = tested on: Enterococcus faecalis ATCC29212; experiment: Antibiofilm assay (crystal violet), MBIC; format: cell-based; details: Enterococcus faecalis, ATCC29212, 24 h, 37 °C, read-out: Minimum biofilm inhibition concentration (MBIC), Enterococcus faecalis ATCC29212
In short: as §2

[8] = tested on: Pseudomonas aeruginosa ATCC27853; experiment: Antibiofilm assay (crystal violet), MBIC; format: cell-based; details: Pseudomonas aeruginosa, ATCC27853, 24 h, 37 °C, read-out: Minimum biofilm inhibition concentration (MBIC), Pseudomonas aeruginosa ATCC27853
In short: as §2

[9] = tested on: Escherichia coli ATCC25922; experiment: MIC by serial microdilution in liquid medium; format: cell-based; details: Escherichia coli, ATCC25922; 24 h, 37 °C; read-out: Minimum inhibitory concentration, Escherichia coli ATCC25922
In short: (§3)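 Twofold serial dilutions from a DMSO stock (10 mg/mL) in Tryptone Soy Broth, inoculated with 10 µL of a 10^6 CFU/mL suspension, incubated 24 h at 37 °C. Growth judged visually and by OD 620 nm; MIC (µg/mL) is the lowest concentration without growth, run in triplicate.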

[10] = tested on: Staphylococcus aureus ATCC25923; experiment: MIC by serial microdilution in liquid medium; format: cell-based; details: 24 h, 37 °C; for MIC: Staphylococcus aureus, ATCC25923, read-out: Minimum inhibitory concentration, Staphylococcus aureus ATCC25923
In short: as §3

[11] = tested on: Enterococcus faecalis ATCC29212; experiment: MIC by serial microdilution in liquid medium; format: cell-based; details: Enterococcus faecalis, ATCC29212; 24 h, 37 °C; read-out: Minimum inhibitory concentration, Enterococcus faecalis ATCC29212
In short: as §3

[12] = tested on: Pseudomonas aeruginosa ATCC27853; experiment: MIC by serial microdilution in liquid medium; format: cell-based; details: Pseudomonas aeruginosa, ATCC27853; 24 h, 37 °C; read-out: Minimum inhibitory concentration, Pseudomonas aeruginosa ATCC27853
In short: as §3

[13] = MTT cell viability / cytotoxicity on normal fibroblasts; format: cell-based, mouse; details: mouse
Text: (§4) Merck chemicals were utilized.
(§5) Untreated cells were used as control, considered 100% viable cells.

[14] = tested on: NCTC (clone 929) mouse fibroblast cells; experiment: as above; format: cell-based; details: for IC50: Mus musculus, NCTC clone 929, NCTC normal fibroblasts, MTT, 48 h
Text: as §4, §5

[15] = tested on: HEp-2 epithelial tumor cells; experiment: MTT cell viability / anti-tumor activity; details: Homo sapiens; for viability at 3.1 µg/mL / viability at 6.25 µg/mL / viability at 12.5 µg/mL / viability at 25 µg/mL / viability at 50 µg/mL: read-out: Cell viability on Hep2 cells (%); for IC50: read-out: IC50 µg/mL on HEp-2 Cells 48 h, HEp-2 epithelial tumor cells, MTT, 48 h
Protocol: The cytotoxicity of the halogenoaminopyrazole derivatives 4a–f and 5a–e was tested on L929 mouse fibroblast cells, and their anti-tumor activity was evaluated on the human carcinoma epithelial cell line HEp-2. The experiments were performed in a concentration range of 3.1–50 μg/mL.
The MTT test was used, 3-(4,5-dimethylthiazol-2-yl)-2,5-diphenyl tetrazolium bromide), which is reduced to insoluble purple-blue formazan crystals precipitated by living cells. Cell viability assessed using the MTT assay reflects the activity of mitochondrial enzymes in treated cells compared to the control culture of untreated cells.
To assess the biocompatibility of the substances, a stable mouse fibroblast cell line, NCTC (clone 929), was grown in minimal essential medium (MEM) with 10% fetal bovine serum (FBS) and 2 mM L-glutamine, along with 100 U/mL penicillin, 100 µg/mL streptomycin, and 500 µg/mL neomycin. The concentration of the compounds used was 0.06 g/2 mL DMSO.
In cytotoxicity experiments, compound solutions were utilized at concentrations of 3.1 μg/mL, 6.25 μg/mL, 12.5 μg/mL, 25 μg/mL, and 50 μg/mL. The NCTC cell suspension was placed into 96-well culture plates with a concentration of 4 × 10^4 cells/mL and incubated at 37 °C for 24 h in a 5% CO2 humidified atmosphere. The compounds under study were placed in sets of three at varying concentrations ranging from 3.1 μg/mL to 50 μg/mL in every well, and the plates were then kept under standard conditions for 48 h. Cell viability was determined through the utilization of the MTT assay. Next, the MTT solution was removed, then isopropanol was added to solubilize the formazan crystals. The colored solution was then measured for absorbance at 570 nm using a Berthold Technologies, LB 940 microplate reader (Bad Wildbad, Germany). The outcomes were determined based on Formula (1) while considering that the recorded optical density is directly related to the number of viable cells in the cell culture being examined [35, 36]. % cell viability = (OD sample/OD control) × 100%(1)
For each tested compound, a graph representing percentage cell viability versus concentrations (in the range 3.1–50 µg/mL) was obtained. Then, the IC50 value was calculated by using ED50 plus V1.0 software.

[16] = NCTC clone 929 (L929) mouse fibroblast cells
[17] = NCTC clone 929 (L929) mouse fibroblast cells, 48h
[18] = read-out: Cell viability on NCTC cells (%)
[19] = 48h, read-out: Cell viability on NCTC cells (%)

Compound	Qualitative antimicrobial activity, Escherichia coli ATCC25922 [1]	Qualitative antimicrobial activity, Staphylococcus aureus ATCC25923 [2]	Qualitative antimicrobial activity, Enterococcus faecalis ATCC29212 [3]	Qualitative antimicrobial activity, Pseudomonas aeruginosa ATCC27853 [4]	minimal effective concentration [5]	minimal effective concentration [6]	minimal effective concentration [7]	minimal effective concentration [8]	MIC [9]	MIC [10]	MIC [11]	MIC [12]	melting point	IC50 [14]	viability at 3.1 µg/mL ([15]; HEp-2, 24 h)	viability at 6.25 µg/mL ([15]; HEp-2, 24 h)	viability at 12.5 µg/mL ([15]; HEp-2, 24 h)	viability at 25 µg/mL ([15]; HEp-2, 24 h)	viability at 50 µg/mL ([15]; HEp-2, 24 h)	viability at 3.1 µg/mL ([15]; HEp-2, 48 h)	further results
Cc1nn(CNc2ccc(F)cc2)c(C)c1[N+](=O)[O-] [4a, N-[(3,5-dimetyl-4-nitro-1H-pyrazol-1-yl)-methyl]-4-fluoroaniline]	+	+	-	+	930 ± 0.05 µg/mL	230 µg/mL	930 ± 0.27 µg/mL	930 ± 0.28 µg/mL	930 ± 0.14 µg/mL (≈ 3520 µM)	230 µg/mL (≈ 870 µM)	930 ± 0.25 µg/mL (≈ 3520 µM)	930 ± 0.27 µg/mL (≈ 3520 µM)	117 to 119 °C	46.4 ± 1.33 µg/mL (≈ 176 µM)	99.1 ± 3.42%	94.4 ± 1.19%	93.38 ± 0.92%	91.3 ± 3.73%	73.2 ± 2.71%	93.05 ± 0.78%	Minimum biofilm inhibition concentration (MBIC), Staphylococcus aureus ATCC25923 [6]: 230 ± 0.11 µg/mL; Minimum inhibitory concentration, Staphylococcus aureus ATCC25923 [10]: 230 ± 0.13 µg/mL (≈ 870 µM); viability at 24 h, 3.1 µg/mL ([13]; NCTC clone 929 (L929) mouse fibroblast cells, 3.1 µg/mL): 99.6 ± 1.38%; viability at 24 h, 6.25 µg/mL [13, 16]: 99.3 ± 2.2%; viability at 48 h, 6.25 µg/mL [13, 17]: 111%; viability at 24 h, 12.5 µg/mL [13, 16]: 99 ± 2.51%; viability at 48 h, 12.5 µg/mL [13, 17]: 101 ± 1.48%; viability at 24 h, 25 µg/mL [13, 16]: 90.2 ± 1.71%; viability at 48 h, 25 µg/mL [13, 17]: 73.5 ± 2.96%; viability at 24 h, 50 µg/mL [13, 16]: 62.7 ± 1.88%; viability at 48 h, 50 µg/mL [13, 17]: 47.5 ± 1.31%; Cell viability on NCTC cells (%) ([14]; 6.25 µg/mL, 48h): 109.13±3.80%; viability at 6.25 µg/mL ([15]; HEp-2, 48 h): 89 ± 1.5%; viability at 12.5 µg/mL ([15]; HEp-2, 48 h): 83.8 ± 2.3%; viability at 25 µg/mL ([15]; HEp-2, 48 h): 72.3 ± 1.99%; viability at 50 µg/mL ([15]; HEp-2, 48 h): 36.4 ± 1.45%; IC50 ([15]; HEp-2, 48 h): 40.2 ± 1.26 µg/mL (≈ 152 µM)
Cc1nn(CN(Cn2nc(C)c([N+](=O)[O-])c2C)c2cccc(Cl)c2)c(C)c1[N+](=O)[O-] [5e, N,N-bis-[(3,5-dimetyl-4-nitro-1H-pyrazol-1-yl)-methyl]-3-chloroaniline]	-	-	-	-	930 ± 0.15 µg/mL	930 ± 0.15 µg/mL	930 ± 0.15 µg/mL	930 ± 0.15 µg/mL	1870 ± 0.08 µg/mL (≈ 4310 µM)	930 ± 0.04 µg/mL (≈ 2140 µM)	1870 ± 0.09 µg/mL (≈ 4310 µM)	1870 ± 0.04 µg/mL (≈ 4310 µM)	154 to 155 °C	20.3 ± 0.45 µg/mL (≈ 46.8 µM)	103.7 ± 0.73%	102.4 ± 0.28%	82.29 ± 0.32%	70.5 ± 0.88%	59.94 ± 0.42%	102.5 ± 0.48%	viability at 24 h, 3.1 µg/mL ([13]; 3.1 µg/mL, read-out: Cell viability on NCTC cells (%)): 101.9 ± 0.73%; viability at 48 h, 3.1 µg/mL ([13]; 3.1 µg/mL, 48h, read-out: Cell viability on NCTC cells (%)): 95.71 ± 0.5%; viability at 24 h, 6.25 µg/mL [13, 18]: 98.57 ± 0.27%; viability at 48 h, 6.25 µg/mL [13, 19]: 89.47 ± 0.34%; viability at 24 h, 12.5 µg/mL [13, 18]: 88.26 ± 0.32%; viability at 48 h, 12.5 µg/mL [13, 19]: 69.25 ± 0.3%; viability at 24 h, 25 µg/mL [13, 18]: 77.7 ± 0.88%; viability at 48 h, 25 µg/mL [13, 19]: 40.3 ± 0.68%; viability at 24 h, 50 µg/mL [13, 18]: 65.79 ± 0.42%; viability at 48 h, 50 µg/mL [13, 19]: 26.4 ± 0.46%; viability at 6.25 µg/mL ([15]; HEp-2, 48 h): 96.06 ± 0.34%; viability at 12.5 µg/mL ([15]; HEp-2, 48 h): 77.4 ± 0.63%; viability at 25 µg/mL ([15]; HEp-2, 48 h): 60.3 ± 0.67%; viability at 50 µg/mL ([15]; HEp-2, 48 h): 37.7 ± 0.46%; IC50 ([15]; HEp-2, 48 h): 31.7 ± 0.48 µg/mL (≈ 73.1 µM)
